The values that follow come from US6689814B1, “Use of dialkyldialkylammonium halide for the preparation of a virucidal medicament intended to be administered by the systemic route” (priority 1998, dated 2004).

In data set [1] the test system is Herpesvirus simplex. Nature of the data set: Example 1: Herpes simplex nasal infection of Nude mice, Bardac intraperitoneal, 14-day monitoring. The settings on record: 0.025 mg i.p. twice a day. It counts as in vivo, nu/nu Nude mice. An excerpt:
Three-week-old female nu/nu Nude mice, having an average weight of 6 to 8 g, divided into two batches of 20 animals, a control group receiving only the virus (curve -x- in FIG. 1), and one group being treated with Bardac® (curve -●- in FIG. 1).
Herpesvirus simplex batch having a titer of 10′ PFU (Plaque Forming Units)/ml.
Didecyldimethylammonium chloride (Bardac®) provided by the Swiss company Lonza and used in the form of a dilution in an isotonic saline solution.
Inoculation of the virus: 30 μl by the nasal route of pure viral suspension, which corresponds to an installation of about 10^4 PFU (viral load). The inoculation is carried out according to the protocol described by KERN et al. in Antiviral Res., 1986, 6, 189-195. One mouse died during the nasal instillation.
Bardac®: inoculation by the intraperitoneal route, twice a day of a dose of 0.025 mg of the product by injection, i.e. a daily dose of 0.050 mg. According to the manufacturer (LONZA), the LD50 by the intravenous route is about 0.20 mg/10 g of mouse.
On day D0, Bardac® is injected in the morning, and 4 hours later nasal instillation of the virus is carried out, followed 6 hours later by the second injection of Bardac®; on the following days, the injections were carried out around 9 am and 5 pm.

For data set [2], the system named is Herpesvirus simplex. Nature of the data set: Example 2: Herpes simplex nasal infection of mice, Bardac intraperitoneal, 6-day monitoring and lung infectious titer. The format is in vivo. The protocol:
(§1) A test similar to the one described in Example 1 was carried out using two groups of 17 mice, one Herpesvirus simplex batch having a titer of 2×10^2 PFU/ml, by inoculating a Bardac® dose of 0.018 mg by injection (that is to say a daily-dose of 0.036 mg) and following the protocol below: on day D0, Bardac® is injected and, 12 hours later, nasal instillation of the virus is carried out, followed by intraperitoneal injections of Bardac® every twelve hours. Monitoring was carried out twice per day for six days.
(§2) At the end of the monitoring period, the lungs of the animals in the two groups were collected for culturing, in order to detect the presence of the virus. Detection of the virus is carried out as follows: the lung is homogenized in a DOUNCE® mixer and then suspended in a sterile test tube and centrifuged for 10 minutes at 2000 rpm. If the sample is not analyzed immediately, it is stored at −80° C. The infectious titer of the lung is given by titrating the virions present in 0.3 ml of centrifugation supernatant and multiplying the number of PFU by ten.

Data set [3] concerns Herpesvirus simplex. Nature of the data set: Example 3: protocol of Example 2 with two batches of 52 animals. It counts as in vivo, mice. The protocol:
as §1, §2
The protocol followed is identical to that of Example 2 with two batches of 52 animals.

For data set [4] the following is noted: mouse, according to the manufacturer (LONZA); cited from earlier work.

“And” between values parts separate entries of the source, which are not always exact repeats. Equal entries are not always repeated.

In turn, `CCCCCCCCCC[N+](C)(C)CCCCCCCCCC.[Cl-]` [Bardac®, didecyldimethylammonium chloride] showed a percentage of survivals in data set [1] (treated group of 20 mice, about 10^4 PFU nasal, 14 days monitoring, control 10%) of 45%. In addition, the “average duration of the disease” value in data set [1] (treated group, control 8.5 days) was found to be 9.2 days. Moreover, the “infectious titer in the lung, individual treated mouse” value in data set [2] (mouse alive at D6) is 0 PFU (7×) and 20 PFU (2×) and 100 PFU; in data set [2] (mouse dead at D5), 0 PFU; in data set [2] (mouse dead at D6), 0 PFU (2×) and 20 PFU and 150 PFU and 50 PFU and 200 PFU. In data set [2] (sum over the 17 treated mice, control >3200), the “total infectious titer in the lungs” value is given as 560 PFU. The “percentage of survivals on day D6” value in data set [2] (treated group of 17 mice, 0.018 mg i.p. every twelve hours, control 29%) turned out to be 59%. For the same compound, the “mice alive on day D6” value in data set [2] (treated group of 17 mice, 0.018 mg i.p. every twelve hours, control five) is given as “ten”. Moreover, the “number of infected mice” value in data set [2] (treated group of 17 mice, control 15) is recorded as 7. The “percentage of mice infected” value in data set [2] (treated group of 17 mice, control 88%) was found to be 41%. Further, in data set [2] (treated group versus control group), the “effect on mortality and infectious titer (in words)” value is “less affected by the virus”. For the same compound, the “infectious titer in the lung, individual infected treated mouse” value is > 1000 PFU (2×) and 20 PFU (2×) and 120 PFU and 250 PFU and 80 PFU in data set [3] (mouse alive at D6); > 1000 PFU and 50 PFU in data set [3] (mouse dead at D3); 300 PFU and 160 PFU and 50 PFU and 40 PFU in data set [3] (mouse dead at D5). In data set [3] (sum over the 13 infected treated mice, control >11930), this compound came in with a total infectious titer above 4100 PFU. For the same compound, in data set [3] (treated animals versus control group, overall), the “factor by which the infectious titer (in PFU) is reduced” value is given as 3. Besides, the “number of live mice on the sixth day” value in data set [3] (treated group of 52 mice, control 22) worked out at 39. For the same compound, the “number of mice infected with the virus” value in data set [3] (treated group of 52 mice, control 37) is 13. Further, the “percentage of survivors on the sixth day” value in data set [3] (treated group of 52 mice, control 42%) was 75%. The “percentage of mice infected with the virus” value in data set [3] (treated group of 52 mice, control 71%) is 25%. The “LD50 by the intravenous route” value in data set [4] is given as “about 0.20 mg/10 g of mouse”.
